Results: US8680052B1, “Methods of treating, reducing the incidence of, and/or preventing ischemic events” (The Medicines Company, priority 2013, dated 2014)

Legend:
[1] = tested on: vasodilator-stimulated phosphoprotein (VASP); test: Example 4: vasodilator-stimulated phosphoprotein (VASP) index; assay type: in vivo, human
Method: (§1) The study involved 12 patients who met the criteria of being 18-75 years of age, having coronary artery disease (CAD) documented by a previous MI or coronary revascularization, and taking 81 mg of aspirin daily. […] Prohibited concomitant medications included strong and potent CYP3A inhibitors, simvastatin and lovastatin at doses more than 40 mg/day, omeprazole or esomeprazole, and digoxin. Use of non-steroidal anti-inflammatory agents was discouraged during study participation but not prohibited.
(§2) Each patient was administered a 30 μg/kg bolus of cangrelor followed immediately by a 2 hr infusion at a rate of 4.0 μg/kg/min. A loading dose of ticagrelor (180 mg) was given after 0.5 hr or 1.25 hr (n=6 for each). Blood for pharmacodynamic platelet function studies was taken after 0.5 or 1.25 hr (corresponding to the time of ticagrelor load, n=6 for each), and then at 1.75, 2, 2.25, 2.5, 2.75, 3, 4, and 5.25 hr. Patients were assigned randomly to receive either 6 (n=6) or 7 (n=6) doses of ticagrelor to be taken every 12 hours following the discontinuation of the infusion of cangrelor. On study day 5, each patient was administered a 30 μg/kg bolus of cangrelor followed immediately by a 2 hr infusion at a rate of 4.0 μg/kg/min. Blood for pharmacodynamic assessment was taken after 1 and 2 hr. Adverse events were queried throughout study participation that ended with a telephone interview performed on study day 10-12.
(§3) Pharmacodynamic assessment included light transmission aggregometry (LTA), VerifyNow® P2Y12 assay, vasodilator-stimulated phosphoprotein (VASP) index, and platelet activation measured with the use of flow cytometry. Assessment of LTA, VerifyNow®, and platelet activation with the use of flow cytometry was performed within 30 min of blood being taken. In the case of flow cytometry, samples were processed to fixation and then batched for analysis. For VASP, index samples were batched and processed as recommended by the vendor within 2 h of blood being taken. This approach limited the time from fixation of VASP index to flow analysis to less than 1 h.
(§4) LTA induced by 5 μM and 20 μM adenosine diphosphate (ADP) was quantified ex vivo (i.e. in non-adjusted platelet rich plasma). Platelet-poor plasma was set as 100% aggregation, and both maximal (peak) and terminal (at 300 s) aggregation were measured with a PAP4 aggregometer (BioData, Horsham, Pa.). VerifyNow® P2Y12 assay (Accumetrics Inc, San Diego, Calif.) that measures the effects of drugs on the P2Y12 receptor by activating platelets with prostaglandin El in addition to ADP was used in accordance with the instructions provided by the manufacturer. Platelet reactivity was expressed in P2Y12 reaction units (PRU). Activation of platelets was identified with the use of flow cytometry as previously described.^17. And to determine the VASP index, a commercially available kit (Diagnostica Stago, Inc, Parsippany NJ) was used. ^17 Schneider D J, Sobel B E. Streamlining the design of promising clinical trials: in-vitro testing of antithrombotic regimens and multiple agonists of platelet activation. Coron Artery Dis. 2009; 20:175-8.

[2] = target: T1, P2Y12 receptor (Homo sapiens, UniProt Q9H244); test: Example 4: VerifyNow P2Y12 assay, platelet reactivity in PRU; assay type: in vivo
T1 construct: from tissue; host or cells: platelets in whole blood of patients
Method: The study involved 12 patients who met the criteria of being 18-75 years of age, having coronary artery disease (CAD) documented by a previous MI or coronary revascularization, and taking 81 mg of aspirin daily. […] Use of non-steroidal anti-inflammatory agents was discouraged during study participation but not prohibited.
as §2, §3, §4

[3] = tested on: platelets; test: Example 4: platelet activation measured by flow cytometry; assay type: in vivo, human; conditions: P-selectin expression, 1 μM ADP
Method: as §1, §2, §3, §4

[4] = reference 5.25 h, Ticagrelor at 0.5 h
[5] = reference 5.25 h, Ticagrelor at 1.25 h

T1 sequence (Q9H244 whole entry): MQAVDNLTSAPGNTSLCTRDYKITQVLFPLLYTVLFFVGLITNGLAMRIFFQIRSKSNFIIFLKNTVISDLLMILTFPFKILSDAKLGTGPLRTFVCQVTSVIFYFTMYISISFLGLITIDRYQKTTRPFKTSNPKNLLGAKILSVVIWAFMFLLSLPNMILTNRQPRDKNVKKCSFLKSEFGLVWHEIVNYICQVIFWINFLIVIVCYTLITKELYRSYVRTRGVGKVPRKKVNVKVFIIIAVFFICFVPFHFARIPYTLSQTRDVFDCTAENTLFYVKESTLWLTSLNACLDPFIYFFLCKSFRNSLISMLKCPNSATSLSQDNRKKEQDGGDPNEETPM

## CCCSc1nc(N[C@@H]2C[C@H]2c2ccc(F)c(F)c2)c2nnn([C@@H]3C[C@H](OCCO)[C@@H](O)[C@H]3O)c2n1 [ticagrelor]
[1]; 2.25 h, All
  VASP Index VI: 35 ± 10
[1]; 2.25 h, Ticagrelor at 0.5 h
  VASP Index VI: 37 ± 8
[1]; 2.25 h, Ticagrelor at 1.25 h
  VASP Index VI: 32 ± 11
[1]; 2.5 h, All
  VASP Index VI: 48 ± 49
[1]; 2.5 h, Ticagrelor at 0.5 h
  VASP Index VI: 41 ± 25
[1]; 2.5 h, Ticagrelor at 1.25 h
  VASP Index VI: 54 ± 32
[1]; 2.75 h, All
  VASP Index VI: 22 ± 16
[1]; 2.75 h, Ticagrelor at 0.5 h
  VASP Index VI: 21 ± 13
[1]; 2.75 h, Ticagrelor at 1.25 h
  VASP Index VI: 22 ± 20
[1]; 3 h, All
  VASP Index VI: 25 ± 19
[1]; 3 h, Ticagrelor at 0.5 h
  VASP Index VI: 24 ± 19
[1]; 3 h, Ticagrelor at 1.25 h
  VASP Index VI: 26 ± 20
[1]; 4 h, All
  VASP Index VI: 17 ± 14
[1]; 4 h, Ticagrelor at 0.5 h
  VASP Index VI: 16 ± 14
[1]; 4 h, Ticagrelor at 1.25 h
  VASP Index VI: 19 ± 16
[1]; reference 5.25 h, All
  VASP Index VI: 12 ± 12
[1]; [4]
  VASP Index VI: 11 ± 10
[1]; [5]
  VASP Index VI: 14 ± 15
[2]; 2.25 h, All
  VerifyNow IPR: 89 ± 11
  VerifyNow PRU: 28 ± 28 PRU
[2]; 2.25 h, Ticagrelor at 0.5 h
  VerifyNow IPR: 90 ± 10
  VerifyNow PRU: 28 ± 27 PRU
[2]; 2.25 h, Ticagrelor at 1.25 h
  VerifyNow IPR: 89 ± 14
  VerifyNow PRU: 28 ± 32 PRU
[2]; 2.5 h, All
  VerifyNow IPR: 70 ± 31
  VerifyNow PRU: 76 ± 79 PRU
[2]; 2.5 h, Ticagrelor at 0.5 h
  VerifyNow IPR: 78 ± 24
  VerifyNow PRU: 60 ± 64 PRU
[2]; 2.5 h, Ticagrelor at 1.25 h
  VerifyNow IPR: 62 ± 37
  VerifyNow PRU: 93 ± 94 PRU
[2]; 2.75 h, All
  VerifyNow IPR: 83 ± 21
  VerifyNow PRU: 44 ± 50 PRU
[2]; 2.75 h, Ticagrelor at 0.5 h
  VerifyNow IPR: 84 ± 15
  VerifyNow PRU: 44 ± 40 PRU
[2]; 2.75 h, Ticagrelor at 1.25 h
  VerifyNow IPR: 82 ± 27
  VerifyNow PRU: 44 ± 62 PRU
[2]; 3 h, All
  VerifyNow IPR: 88 ± 19
  VerifyNow PRU: 31 ± 46 PRU
[2]; 3 h, Ticagrelor at 0.5 h
  VerifyNow IPR: 87 ± 16
  VerifyNow PRU: 35 ± 42 PRU
[2]; 3 h, Ticagrelor at 1.25 h
  VerifyNow IPR: 88 ± 23
  VerifyNow PRU: 28 ± 53 PRU
[2]; 4 h, All
  VerifyNow IPR: 96 ± 4
  VerifyNow PRU: 10 ± 10 PRU
[2]; 4 h, Ticagrelor at 0.5 h
  VerifyNow IPR: 97 ± 2
  VerifyNow PRU: 7.3 ± 4.4 PRU
[2]; 4 h, Ticagrelor at 1.25 h
  VerifyNow IPR: 95 ± 5
  VerifyNow PRU: 14 ± 14 PRU
[2]; reference 5.25 h, All
  VerifyNow IPR: 96 ± 4
  VerifyNow PRU: 9.5 ± 9.7 PRU
[2]; [4]
  VerifyNow IPR: 97 ± 2
  VerifyNow PRU: 7.7 ± 5.3 PRU
[2]; [5]
  VerifyNow IPR: 96 ± 4
  VerifyNow PRU: 11 ± 7 PRU
[3]; 2.25 h, All
  Flow Cytometry IPR: 84 ± 8
  Flow Cytometry PR: 7.8 ± 3.7
[3]; 2.25 h, Ticagrelor at 0.5 h
  Flow Cytometry IPR: 86 ± 8
  Flow Cytometry PR: 7.5 ± 2.4
[3]; 2.25 h, Ticagrelor at 1.25 h
  Flow Cytometry IPR: 83 ± 9
  Flow Cytometry PR: 8 ± 4.9
[3]; 2.5 h, All
  Flow Cytometry IPR: 67 ± 29
  Flow Cytometry PR: 14 ± 8.6
[3]; 2.5 h, Ticagrelor at 0.5 h
  Flow Cytometry IPR: 81 ± 17
  Flow Cytometry PR: 9.2 ± 5.9
[3]; 2.5 h, Ticagrelor at 1.25 h
  Flow Cytometry IPR: 53 ± 34
  Flow Cytometry PR: 19 ± 8.5
[3]; 2.75 h, All
  Flow Cytometry IPR: 80 ± 17
  Flow Cytometry PR: 8.8 ± 5.6
[3]; 2.75 h, Ticagrelor at 0.5 h
  Flow Cytometry IPR: 82 ± 13
  Flow Cytometry PR: 9.3 ± 4.7
[3]; 2.75 h, Ticagrelor at 1.25 h
  Flow Cytometry IPR: 79 ± 22
  Flow Cytometry PR: 8.3 ± 6.9
[3]; 3 h, All
  Flow Cytometry IPR: 86 ± 13
  Flow Cytometry PR: 6.5 ± 4.1
[3]; 3 h, Ticagrelor at 0.5 h
  Flow Cytometry IPR: 87 ± 10
  Flow Cytometry PR: 6.8 ± 2.9
[3]; 3 h, Ticagrelor at 1.25 h
  Flow Cytometry IPR: 86 ± 16
  Flow Cytometry PR: 6.2 ± 5.3
[3]; 4 h, All
  Flow Cytometry IPR: 84 ± 15
  Flow Cytometry PR: 7.5 ± 6.2
[3]; 4 h, Ticagrelor at 0.5 h
  Flow Cytometry IPR: 90 ± 4
  Flow Cytometry PR: 5.5 ± 2.4
[3]; 4 h, Ticagrelor at 1.25 h
  Flow Cytometry IPR: 78 ± 20
  Flow Cytometry PR: 9.5 ± 8.2
[3]; reference 5.25 h, All
  Flow Cytometry IPR: 91 ± 6
  Flow Cytometry PR: 5 ± 3.6
[3]; [4]
  Flow Cytometry IPR: 91 ± 4
  Flow Cytometry PR: 5.5 ± 3.9
[3]; [5]
  Flow Cytometry IPR: 91 ± 7
  Flow Cytometry PR: 4.5 ± 2
